# Assay results reported in patent US12629345B2, “Methods, compositions, and devices for drug / live cell microarrays” (Pathak Holdings LLC, priority 2013, dated 2026).
# Entries after “also recorded” stand apart in the source; their conditions may differ. Where a name gives a salt, the structure may show the parent alone.
# Columns and labels:
# Type in all cases: physicochemical
# [1] = Bupivacaine base release from PLGA microimplants formed with oscillating needle in bovine pericardium; details: PDLG 5002 in DMSO infused by oscillating needle, PBS 37 degree C.
# Experimental: Oscillating needle such as tattoo needle may be used to create cavities in the tissue or skin. A commercial tattoo machine as described in the related application (U.S. Pat. No. 9,072,678, cited herein for reference only) is used. The 500-1000 micron size tattoo needle is used and the oscillation frequency was 10 to 12000 oscillations per minute. About 1 square centimeter area was treated with the tattoo needle for 1 minute. The pores created by the tattoo machine repeated needle insertion were used to fill the injectable composition such PLGA solutions with the drug as described before. Alternatively, polymer solution is first applied on the tissue surface to form a solution layer and then the tattoo needle is used to create holes through the solution. The needle goes in and out of the tissue surface and carries the solution with it inside the cavity created. The deposited solution inside the cavity is precipitated by the tissue fluids and the precipitated polymer releases the drug in a sustained manner. Additional information about tattoo based methods can be found on related applications cited herein for reference only. […] The concentration of bupivacaine in the eluted samples is monitored using UV spectrophotometer. […]
# [2] = Rifampin release from encapsulated microspheres in microimplant array in sheep skin tissue; details: PLGA microspheres in glycerol, 33 MP array, PBS 37 degree C., FIG. 14
# Experimental: Rifampin containing red/yellow microspheres are prepared using spray drying method or prepared according to Example 3. Microspheres are prepared using PLGA polymer (PDLG 5002 from Purac) polymer with 20 percent rifampin loading relative to the polymer plus drug weight. Control PLGA microspheres without rifampin are prepared under identical spry drying conditions. 4.9 mg of rifampin encapsulated microspheres are suspended in 0.25 ml glycerol. One/two drops of the suspension are added on the 2 by 2 cm glutaraldehyde fixed sheep tissue. The 33 MP microarray needles are pressed on the tissue via rifampin suspension to create 3 by 3 micro array cavities and infuse the cavities with the rifampin microspheres. The procedure is repeated 9 times on the same tissue at different locations to create 135 micro cavities loaded with rifampin microspheres. The excess suspension is wiped of using tissue paper. No loosely adherent microspheres in the tissue are noticed. The glycerol in the suspension is dissipated in the tissue leaving behind the microspheres in the cavities. […] The rifampin treated tissue and control tissue are incubated at 37 degree C. in 3 ml PBS and rifampin in treated and control samples is monitored at various time points. Rifampin concentration in the eluted samples is analyzed using UV-VIS spectrophotometer (wavelength 474 nm).
# [3] = Bupivacaine hydrochloride release from in situ PLGA implant with and without magnesium carbonate filler; details: FIG. 21B
# Experimental: 100.2 mg PDLG 5002 polymer is dissolved in 1.0 ml DMSO. 10 microliters of methylene blue stock solution (10 mg methylene blue in 2 ml DMSO) is added to the polymer solution as a colorant. Infusion solutions are prepared using the following method: 15.2 mg bupivacaine hydrochloride and 0.50 ml polymer solution are mixed until drug is completely dissolved. 50 mg magnesium carbonate powder (fine powder sieved to collect fraction below 300 microns in size) is added as a biocompatible and biodegradable filler in the drug solution and the mixture is vigorously vortexed for 5 minutes. The magnesium carbonate suspension is infused/tattooed using an oscillating needle in 1 cm square area of sheep skin tissue. Excess solution from the tattooed surface is wiped off. The light blue tattoo with magnesium particles is clearly seen the by unaided naked eye.
# Similarly, a polymer solution without magnesium carbonate is prepared and infused/tattooed in the sheep skin tissue as above. The infused tissue sample is cut and used in controlled release experiment.
# The cut samples are placed in 3 mL of PBS (pH 7.4). The drug eluted PBS is collected at several time points. Fresh PBS is added to replace the eluted PBS solution. The collected PBS is analyzed using a UV spectrophotometer to determine the drug concentration.
compound,measurement,setting,value
"CCCCN1CCCCC1C(=O)Nc1c(C)cccc1C (centres unmarked) [bupivacaine base, bupivacaine]",sustained release of bupivacaine base from in situ formed implant,[1]; FIG. 13,several days
same,sustained release of bupivacaine base from in situ formed implant,"[1]; FIG. 13, listed as bupivacaine",released in a sustained manner; also recorded: few days
CO[C@H]1/C=C/O[C@@]2(C)Oc3c(C)c(O)c4c(O)c(c(/C=N/N5CCN(C)CC5)c(O)c4c3C2=O)NC(=O)/C(C)=C\C=C\[C@H](C)[C@H](O)[C@@H](C)[C@@H](O)[C@@H](C)[C@H](OC(C)=O)[C@@H]1C [rifampin],release of rifampin from microspheres in microimplant array,[2],sustained release
CCCCN1CCCCC1C(=O)Nc1c(C)cccc1C (centres unmarked) [bupivacaine hydrochloride],duration of release of bupivacaine hydrochloride,"[3]; PLGA array implant with magnesium carbonate filler, hydrochloride",several days; also recorded: much longer sustained release
same,duration of release of bupivacaine hydrochloride,[3]; PLGA array implant without magnesium carbonate,one to two days
